Counter-ions that a name gives are not always drawn.
Columns and labels:
[1] = PAMPA-BBB permeability assay
Source text: In the present study we used a Parallel Artificial Membrane Permeation Assay (PAMPA) with a membrane mimicking the BBB phospholipidic composition (PAMPA-BBB) to evaluate and predict passive, transcellular permeability of the mescaline-NBOMe, 25B-NBOMe and 25N-NBOMe drugs.
The PiON inc database software was used for data analysis.

[2] = pH 7.4; cited from earlier work
[3] = system: differentiated SH-SY5Y cells; experiment: Intracellular ROS (DCFH-DA probe), differentiated SH-SY5Y; format: cell-based; settings: positive control, 200 µM, 24 h, vs negative control cells
Description: Reactive oxygen species (ROS) production was evaluated using the 2′,7′-dichlorofluorescein diacetate (DCFH-DA) probe. In the cytoplasm, DCFH-DA is hydrolyzed producing 2′,7′-dichlorodihydrofluorescein (DCFH) that, in the presence of ROS, is easily oxidized to the highly fluorescent 2′,7′-dichlorofluorescein (DCF).
(§1) ROS production was evaluated by using the well-known membrane permeable fluorescent probe 2′,7′-dichlorofluorescein diacetate (DCFH-DA). Both cell lines were seeded in 96-well cell culture plates, and pre-incubated with 10 µM DCFH-DA, protected from light, at 37 °C, in a 5% CO2–95% air atmosphere. After 30 min, DCFH-DA was removed, and the cells were exposed to the drugs (0–500 µM for SH-SY5Y cells and 0–1000 µM for HepG2 cells), at 37 °C, in a 5% CO2–95% air atmosphere. Subsequently, after 24 h of exposure, the fluorescence was measured at 485 nm excitation and 530 nm emission wavelengths in a multi-well plate reader (PowerWaveX BioTek Instruments, Winooski, VT, USA). Additionally, tert-butyl hydroperoxide (200 µM, 24 h) was used as a positive control for ROS overproduction. The results were expressed as percentage of control cells. At least four independent experiments were performed, in triplicate.

HepG2 cells = experiment: Intracellular ROS (DCFH-DA probe), HepG2; format: cell-based; settings: HepG2, positive control, 200 µM, 24 h, vs control cells (0 µM)
Description: as §1

| Structure (SMILES) | −Log Pe ± SD [1] | further results |
| --- | --- | --- |
| CC(=O)[C@H]1CC[C@H]2[C@@H]3CCC4=CC(=O)CC[C@]4(C)[C@H]3CC[C@]12C [Progesterone, reference compound] | 4.5 ± 0.44 |  |
| CC(C)NCC(O)COc1cccc2ccccc12 (stereo not drawn) [Propanolol. HCl, reference compound] | 4.6 ± 0.42 |  |
| CC(=O)Nc1ccccc1 [Acetanilide] |  | CHI (IAM) [2]: 11.57 |
| C=C[C@H]1C[N@@]2CC[C@H]1C[C@@H]2[C@@H](O)c1ccnc2ccc(OC)cc12 [Quinidine. HCl, reference compound] | 4.8 ± 0.39 |  |
| CC(C)(C)OO [t-BHP, tert-butyl hydroperoxide] |  | ROS intracellular levels [3]: significant increase in ROS intracellular levels; ROS intracellular levels (HepG2 cells): significant increase in ROS levels |

From PMC10458253, “Unraveling the In Vitro Toxicity Profile of Psychedelic 2C Phenethylamines and Their N-Benzylphenethylamine (NBOMe) Analogues” (Pharmaceuticals, 2023)
